# PubChem BioAssay AID1996
# Details: buffer; pH 7.4; 200.0 µM
row,SMILES,solubility kinetic [µg/mL]
1,CCc1nnc(NC(=O)CCC(=O)NC2CC2)s1,> 40.2
2,Cc1ccc(SCc2noc(-c3c(C)noc3C)n2)cc1,2.1
3,CCc1c(C)nc(SCc2cccnc2)[nH]c1=O,> 39.2
4,CS(=O)(=O)c1ccc(NCCN2CCOCC2)c([N+](=O)[O-])c1,44.4
5,O=C(/C=C/c1ccco1)NCCc1ccc(F)cc1,10.3
6,N#Cc1c(C(F)(F)F)cc(Cc2ccccc2)nc1SCC(=O)NCC(=O)O,> 61.4
7,O=C1Cc2cc(NS(=O)(=O)c3ccc(Cl)cc3)cc3c2N1CCC3,42.9
8,O=C(NCCO)C(=O)Nc1cc2c3c(c1)CC(=O)N3CCC2,> 45.5
9,O=C(CNC(=O)c1cnccc1C(F)(F)F)c1cccc(Cl)c1,25.3
10,CCOC(=O)c1c(NC(C)=O)sc(C(=O)NC2CCCC2)c1C,1
11,O=C(O)C1(c2ccccc2)CCC(Nc2ccccc2)C1 (stereo not given),39.7
12,CC(C)(C)CC(=O)O/N=C(\N)c1ccncc1,> 35.3
13,COc1ccc(/C=N\Nc2ncc(F)c(N3CCOCC3)n2)cc1OC,> 54.2
14,Cc1ccc(C)c(S(=O)(=O)NCCC(=O)N2CCCC(C(N)=O)C2)c1 (stereo not given),> 55.1

# Next, values leading:
row,solubility kinetic [µg/mL],SMILES
1,30.2,Nc1nonc1C(=O)NCCNc1ncccc1[N+](=O)[O-]
2,4.9,Cc1ccc(OCC(=O)NCCc2c[nH]c3ccccc23)cc1
3,33.8,Cc1noc(C(=O)N(C)c2ccccc2)c1Cl
4,52.2,COc1ccccc1C(=O)N/C(=C\c1ccccc1)C(=O)NC(C)C(=O)O (stereo not given)
5,> 40.5,CNC(=O)Cn1ncc2c3ccccc3n(C)c2c1=O
6,30.4,Cc1c(-c2csc(N)n2)c2ccccc2n1C
7,> 51.2,CC(NC(=O)c1ccco1)C(=O)OCc1cccc(C(F)(F)F)c1 (stereo not given)
8,40.2,O=C(NCCCl)C1Cc2c(ccc3ccccc23)O1 (stereo not given)
9,> 44.6,COc1ccc(-n2cnc3ccccc3c2=O)c([N+](=O)[O-])c1
10,> 48.1,C=CCN(C(=O)Nc1ccc2c(c1)nc(C)n2C)c1ccccc1
11,3.8,COc1ccc(NC(=O)C2CCCN(c3nccc(C)n3)C2)cc1 (stereo not given)
12,> 61.7,COc1ccc(CCNC(=O)COC(=O)c2cc3ccccc3oc2=O)cc1OC
13,1.4,Cc1cccc(NC(=O)C(=O)NCCc2c[nH]c3ccccc23)c1C
14,7.1,COc1cccc(OCc2nc(-c3ccc(Br)o3)no2)c1
15,9.8,O=C(COc1ccccc1)Nc1ccc2oc(=O)ccc2c1
16,0.4,O=c1[nH]c(-c2ccccc2)cnc1-c1ccccc1
